The values below come from patent US8299048B2, “Hexahydrocyclopentyl[f]indazole sulfonamides and derivatives thereof as selective glucocorticoid receptor modulators” (Merck Sharp & Dohme Corp., priority 2008, dated 2012).

Each structure is given as a SMILES string. Like-named read-outs stand apart in the source and are kept apart here.

This experiment addresses T1, human GR (Homo sapiens, UniProt P04150).
T1 sequence (P04150 1-777): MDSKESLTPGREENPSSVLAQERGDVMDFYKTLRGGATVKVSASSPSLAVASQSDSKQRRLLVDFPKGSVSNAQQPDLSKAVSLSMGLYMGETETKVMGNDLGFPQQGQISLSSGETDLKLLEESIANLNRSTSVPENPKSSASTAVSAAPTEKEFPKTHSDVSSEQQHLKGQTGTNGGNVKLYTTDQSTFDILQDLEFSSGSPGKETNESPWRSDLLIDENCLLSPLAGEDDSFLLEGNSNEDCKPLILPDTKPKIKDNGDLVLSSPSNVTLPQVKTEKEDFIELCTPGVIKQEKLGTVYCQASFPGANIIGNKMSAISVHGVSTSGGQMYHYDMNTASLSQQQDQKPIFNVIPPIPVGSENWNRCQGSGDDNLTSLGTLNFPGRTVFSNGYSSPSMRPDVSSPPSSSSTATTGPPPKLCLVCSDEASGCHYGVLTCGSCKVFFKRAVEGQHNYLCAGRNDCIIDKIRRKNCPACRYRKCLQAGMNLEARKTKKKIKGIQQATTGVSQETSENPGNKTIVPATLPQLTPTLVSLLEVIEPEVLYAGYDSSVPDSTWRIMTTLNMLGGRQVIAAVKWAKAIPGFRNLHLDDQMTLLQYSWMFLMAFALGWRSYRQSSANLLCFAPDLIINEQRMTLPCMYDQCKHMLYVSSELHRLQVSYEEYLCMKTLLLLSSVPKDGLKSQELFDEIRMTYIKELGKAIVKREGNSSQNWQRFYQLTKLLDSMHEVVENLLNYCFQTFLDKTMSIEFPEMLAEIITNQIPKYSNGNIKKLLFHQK
As to the kind of experiment: Transrepression Assay (GITAR), TNFα-β-lactamase reporter in U937 cells. Format: cell-based. Also noted: U937 cells contain an endogenous glucocorticoid receptor (GR); endogenous in cells; host or cells: U937 cells stably transfected with the TNF-alpha promoter/beta-lactamase reporter. To be noted: for GITAR > GRAMM % SEP: GITAR Emax minus GRAMMER Emax; for EC50: U937 cells, inflection point, read-out: Transrepression U937 Cells GITAR IP. In outline: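 Repression normalised to 100 nM dexamethasone (100%), measured with CCF2-AM β-lactamase substrate after 70–90 min at room temperature. Stably transfected U937 cells were exposed to compound 30–45 min, then to PMA (5 ng/ml final) plus LPS (100 ng/ml final) overnight (~18 hr), 37° C.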

[1] abbreviates: U-937, U937 cells, maximum activity, read-out: Transrepression U937 Cells GITAR Emax.
The mark [2] stands for this setting: U-937, activity repressed by 100 nM dexamethasone alone set as 100%, read-out: maximal activity in the transrepression (GITAR) assay.

As for `C[C@]12Cc3cnn(-c4ccc(F)cc4)c3C=C1CC[C@@H]2CN(CC(OS(=O)(=O)CC(F)(F)F)C(F)F)S(=O)(=O)CC(F)(F)F` (stereo partly drawn) [Example 134, 2,2-difluoro-1-({{[(4αR,5S)-1-(4-fluorophenyl)-4α-methyl-1,4,4α,5,6,7-hexahydrocyclopenta[f]indazol-5-yl]methyl}[(2,2,2-trifluoroethyl)sulfonyl]amino}methyl)ethyl 2,2,2-trifluoroethanesulfonate], the “GITAR > GRAMM % SEP” value worked out at 4.7% and the EC50 turned out to be 243 nM. Under setting [1], the Emax worked out at 93.8%. Under setting [2], the Emax was greater than 5%.

On to `C[C@]12Cc3cnn(-c4ccc(F)cc4)c3C=C1CC[C@@H]2CN(CC1(O)CC1)S(=O)(=O)CC(F)(F)F` [Example 135, 2,2,2-trifluoro-N-{[(4αR,5S)-1-(4-fluorophenyl)-4α-methyl-1,4,4α,5,6,7-hexahydrocyclopenta[f]indazol-5-yl]methyl}-N-[(1-hydroxycyclopropyl)methyl]ethanesulfonamide], for which the “GITAR > GRAMM % SEP” value is on record as 19.2% and the EC50 was determined as 258 nM. Further, under setting [1], the Emax turned out to be 87.9%. The Emax under setting [2] is greater than 5%.

`C[C@]12Cc3cnn(-c4ccc(F)cc4)c3C=C1CC[C@@H]2CN(CC1(OS(=O)(=O)CC(F)(F)F)CC1)S(=O)(=O)CC(F)(F)F` [Example 136, 1-({{[(4αR,5S)-1-(4-fluorophenyl)-4α-methyl-1,4,4α,5,6,7-hexahydrocyclopenta[f]indazol-5-yl]methyl}[(2,2,2-trifluoroethyl)sulfonyl]amino}methyl)cyclopropyl 2,2,2-trifluoroethanesulfonate]: the “GITAR > GRAMM % SEP” value is 42.0% and the EC50 turned out to be 441 nM. The Emax under setting [1] was found to be 101%. Further, under setting [2], the Emax was greater than 5%.

On to `C[C@]12Cc3cnn(-c4ccccc4)c3C=C1CC[C@@H]2CN(CCc1ccccc1F)S(=O)(=O)CC(F)(F)F` [Example 137, 2,2,2-trifluoro-N-[2-(2-fluorophenyl)ethyl]-N-{[(4αR,5S)-4α-methyl-1-phenyl-1,4,4α,5,6,7-hexahydrocyclopenta[f]indazol-5-yl]methyl}ethanesulfonamide], for which the “GITAR > GRAMM % SEP” value is recorded as 14.0% and the EC50 was 324 nM. In addition, the Emax under setting [1] came to 87.6%. Further, under setting [2], the Emax is greater than 5%.

On to `C[C@]12Cc3cnn(-c4ccccc4)c3C=C1CC[C@@H]2CN(CCc1ccccn1)S(=O)(=O)CC(F)(F)F` [Example 138, 2,2,2-trifluoro-N-{[(4αR,5S)-4α-methyl-1-phenyl-1,4,4α,5,6,7-hexahydrocyclopenta[f]indazol-5-yl]methyl}-N-(2-pyridin-2-ylethyl)ethanesulfonamide], for which the “GITAR > GRAMM % SEP” value is 5.6% and the EC50 was 433 nM. Moreover, the Emax under setting [1] turned out to be 83.7%. In addition, the Emax under setting [2] is greater than 5%.

As for `COc1ccccc1CCN(C[C@H]1CCC2=Cc3c(cnn3-c3ccccc3)C[C@@]21C)S(=O)(=O)CC(F)(F)F` [Example 139, 2,2,2-trifluoro-N-[2-(2-methoxyphenyl)ethyl]-N-{[(4αR,5S)-4α-methyl-1-phenyl-1,4,4α,5,6,7-hexahydrocyclopenta[f]indazol-5-yl]methyl}ethanesulfonamide], the “GITAR > GRAMM % SEP” value came out at 1.7% and the EC50 worked out at 798 nM. The Emax under setting [1] worked out at 72.4%. For the same compound, the Emax under setting [2] is greater than 5%.

For `C[C@]12Cc3cnn(-c4ccccc4)c3C=C1CC[C@@H]2CN(CCc1ccccn1)S(=O)(=O)Cc1cccnc1` [Example 140, N-{[(4αR,5S)-4α-methyl-1-phenyl-1,4,4α,5,6,7-hexahydrocyclopenta[f]indazol-5-yl]methyl}-1-pyridin-3-yl-N-(2-pyridin-2-ylethyl)methanesulfonamide], the EC50 was determined as 1570 nM. Also, under setting [1], the Emax is 37%. The Emax under setting [2] is greater than 5%.

`C[C@]12Cc3cnn(-c4ccccc4)c3C=C1CC[C@@H]2CN(CCc1ccccc1O)S(=O)(=O)Cc1cccnc1` [Example 141, N-[2-(2-hydroxyphenyl)ethyl]-N-{[(4αR,5S)-4α-methyl-1-phenyl-1,4,4α,5,6,7-hexahydrocyclopenta[f]indazol-5-yl]methyl}-1-pyridin-3-ylmethanesulfonamide]: the “GITAR > GRAMM % SEP” value is on record as 39.7% and the EC50 worked out at 400 nM. Further, the Emax under setting [1] came out at 62.2%. For the same compound, the Emax under setting [2] was greater than 5%.

For `C[C@]12Cc3cnn(-c4ccc(F)cc4)c3C=C1CC[C@@H]2CN(CC(O)c1ccccn1)S(=O)(=O)CC(F)(F)F` (stereo partly drawn) [Example 142, 2,2,2-trifluoro-N-{[(4αR,5S)-1-(4-fluorophenyl)-4α-methyl-1,4,4α,5,6,7-hexahydrocyclopenta[f]indazol-5-yl]methyl}-N-(2-hydroxy-2-pyridin-2-ylethyl)ethanesulfonamide], the “GITAR > GRAMM % SEP” value was determined as 14.4% and the EC50 worked out at 140 nM. Besides, under setting [1], the Emax was found to be 92.5%. The Emax under setting [2] is greater than 5%.

`C[C@]12Cc3cnn(-c4ccc(F)cc4)c3C=C1CC[C@@H]2CN(CC(O)c1cccnc1)S(=O)(=O)CC(F)(F)F` (stereo partly drawn) [Example 143, 2,2,2-trifluoro-N-{[(4αR,5S)-1-(4-fluorophenyl)-4α-methyl-1,4,4α,5,6,7-hexahydrocyclopenta[f]indazol-5-yl]methyl}-N-(2-hydroxy-2-pyridin-3-ylethyl)ethanesulfonamide]: the “GITAR > GRAMM % SEP” value was 7.7% and the EC50 was 225 nM. In addition, under setting [1], the Emax was determined as 91.2%. Besides, the Emax under setting [2] was greater than 5%.

Regarding `C[C@]12Cc3cnn(-c4ccc(F)cc4)c3C=C1CC[C@@H]2CN(CC(O)c1ccncc1)S(=O)(=O)CC(F)(F)F` (stereo partly drawn) [Example 144, 2,2,2-trifluoro-N-{[(4αR,5S)-1-(4-fluorophenyl)-4α-methyl-1,4,4α,5,6,7-hexahydrocyclopenta[f]indazol-5-yl]methyl}-N-(2-hydroxy-2-pyridin-4-ylethyl)ethanesulfonamide], the “GITAR > GRAMM % SEP” value turned out to be 18.1% and the EC50 worked out at 334 nM. Further, under setting [1], the Emax was found to be 91.6%. Also, the Emax under setting [2] was greater than 5%.

`C[C@]12Cc3cnn(-c4ccc(F)cc4)c3C=C1CC[C@@H]2CN(CC(OS(=O)(=O)CC(F)(F)F)c1ccccn1)S(=O)(=O)CC(F)(F)F` (stereo partly drawn) [Example 145, 2-{{[(4αR,5S)-1-(4-fluorophenyl)-4α-methyl-1,4,4α,5,6,7-hexahydrocyclopenta[f]indazol-5-yl]methyl}[(2,2,2-trifluoroethyl)sulfonyl]amino}-1-pyridin-2-ylethyl 2,2,2-trifluoroethanesulfonate]: the “GITAR > GRAMM % SEP” value is given as 33.3% and the EC50 worked out at 196 nM. Besides, the Emax under setting [1] is 93.5%. The Emax under setting [2] is greater than 5%.

Consider `CC(CN(C[C@H]1CCC2=Cc3c(cnn3-c3ccc(F)cc3)C[C@@]21C)S(=O)(=O)CC(F)(F)F)c1cccnc1` (stereo partly drawn) [Example 146, 2,2,2-trifluoro-N-{[(4αR,5S)-1-(4-fluorophenyl)-4α-methyl-1,4,4α,5,6,7-hexahydrocyclopenta[f]indazol-5-yl]methyl}-N-(2-pyridin-3-ylpropyl)ethanesulfonamide], for which the “GITAR > GRAMM % SEP” value is recorded as 1.8% and the EC50 came out at 308 nM. In addition, under setting [1], the Emax came to 93.3%. The Emax under setting [2] is greater than 5%.

As for `C[C@]12Cc3cnn(-c4ccc(F)cc4)c3C=C1CC[C@@H]2CN(CCC(N)C(F)(F)F)S(=O)(=O)CC(F)(F)F` (stereo partly drawn) [Example 147, N-(3-amino-4,4,4-trifluorobutyl)-2,2,2-trifluoro-N-{[(4aR,5S)-1-(4-fluorophenyl)-4α-methyl-1,4,4α,5,6,7-hexahydrocyclopenta[f]indazol-5-yl]methyl}ethanesulfonamide], the “GITAR > GRAMM % SEP” value is on record as 0.3% and the EC50 worked out at 708 nM. Also, the Emax under setting [1] worked out at 78.4%. For the same compound, the Emax under setting [2] is greater than 5%.

Turning to `CCCS(=O)(=O)N(CC(O)C(F)(F)F)C[C@H]1CCC2=Cc3c(cnn3-c3ccc(F)cc3)C[C@@]21C` (stereo partly drawn) [Example 148, N-{[(4αR,5S)-1-(4-fluorophenyl)-4α-methyl-1,4,4α,5,6,7-hexahydrocyclopenta[f]indazol-5-yl]methyl}-N-(3,3,3-trifluoro-2-hydroxypropyl)propane-1-sulfonamide], the “GITAR > GRAMM % SEP” value is 14.9% and the EC50 was found to be 858 nM. The Emax under setting [1] was 77.6%. For the same compound, the Emax under setting [2] was greater than 5%.
